In patent publication US8669232B2, “Flavonol compounds, a bioactive extract/fraction from Ulmus wallichiana and its compounds for prevention for treatment of osteo-health related disorders” (Council of Scientific & Industrial Research, priority 2008, dated 2014):

Tests used:
[1] = system: 3T3-L1 preadipocyte cells; test: In vitro adipogenesis (oil red-O); assay type: cell-based, murine; details: for adipocyte differentiation (oil red-O): 1 μM, 100 nM and 1 nm, 8 days
Method: 3T3-L1 preadipocyte cells were cultured to confluency. Two days after the cells reached confluency was considered as day 0. At day 0, cells were treated with the induction media [10% calf serum/DMEM containing 1 μg/ml insulin, 1 μM dexamethasone and 500 μM isobutylmethylxanthine (IBMX). Two days after induction medium treatment (day 2), the cells were treated with insulin [10% calf serum/DMEM containing 1 μg/ml insulin. Full differentiation was usually achieved after 8 days from day 0. To test the effect of the test compound on the differentiation of 3T3-L1 preadipocytes to adipocytes, the test compounds K068 and K100 at 1 μM, 100 nM and 1 nm concentrations were used in different concentrations throughout differentiation (for 8 days starting from day 0). For assessment of adipogenesis the differentiated cells were fixed in 4% paraformaldehyde w/v for 20 min, washed with PBS and stained with 0.34% Oil Red 0 in 60% isopropanol for 15 minutes. Then it was washed with PBS thrice and stain was extracted with 80% isopropanol by keeping it at room temperature for 30 minutes on an orbital shaker. OD of the extracted dye was taken at 520 nm.

calvarial osteoblasts [2] = test: In vitro mineralization of calvarial osteoblasts (alizarin red-S, von kossa); assay type: cell-based, neonatal Sprague-Dawley rats; details: for Von kossa staining (mineralized nodules) compared with controls (vehicle): 21 days culture
Method: (§1) Neonatal rat calvarial cell cultures are prepared as described previously (Chattopadhyay et al., Endocrinology 145:3451-62, 2004) using slight modification. Briefly, for calvarial osteoblast cultures, frontal and parietal bones from neonatal Sprague-Dawley rats (1-3 day old) were digested in 0.1% collagenase/0.1% dispase in α-MEM to obtain 5 sequential digests. The second through fifth digests are combined and grown to confluence at 37° C. and 5% CO2 in air in α-MEM, supplemented with 10% fetal bovine serum (FBS), 2 mM glutamine, 100 U/ml penicillin-streptomycin, non-essential amino acid solution and sodium pyruvate.
Ability of cells to produce mineralized matrix is important with regard to development of materials for bone regeneration. Mineralization of extracellular matrix by osteoblasts was determined using alizarin red-S (AR-S) assay combined with cetylpyridinium chloride (CPC) extraction. (Stanford et al, J. Biol. Chem. 270:9420-9428; 1995.) Alizarin red is a dye that binds selectively to nascent calcium salts and is widely used for calcium mineral histochemistry. Cells were seeded onto a six well plate containing 10000 cells/well in culture medium supplemented with 10 mM β-glycerophosphate and 50 μg/ml ascorbic acid with test compounds K012, K058, K068 and K0100 at 1 nM and 100 nM concentration. Treatment was given for 21 days and after completion of the treatment samples were rinsed with PBS followed by fixation (4% HCHO for 20 min). Photomicrographs of the stained wells were taken. Subsequently, alizarin red-S stain was extracted using 10% (w/v) cetylpyridinium chloride (CPC) in […] sodium phosphate, pH 7.0, for 15 min at room temperature, and the resulting solutions were read on a Microplate reader with a test wavelength of 540 nm against a reference wavelength of 620 nm. Mineralization nodules were also seen by Von kossa staining procedure (A. M. Chou et al. Materials Science and Engineering C 20 (2002) 77-83.) After 21 days culture, cells in tissue culture wells were washed with PBS and immersed in 5% (w/v) silver nitrate solution for 45 min. After rinsing with distilled water, they were fixed in 5% (w/v) sodium bicarbonate formalin for 8 min. Finally, they were immersed in 5% (w/v) sodium thiosulphate solution for 5 min and washed thoroughly with water for 15 min and photomicrographs were taken.

calvarial osteoblasts [3] = test: Alkaline phosphatase activity assay in calvarial osteoblasts; assay type: cell-based, neonatal Sprague-Dawley rats
Method: as §1
For alkaline phosphatase (ALP) assay, osteoblasts were plated in 96-well (2000 cells/well) plates in regular growth medium. Twenty-four hours later, when the cells formed a confluent monolayer, medium was replaced with α-MEM medium supplemented with 10% FBS, 10 mM β-glycerophosphate and 50 μg/ml ascorbic acid. Treatment was given with varying concentration of the test compound K012, K058, K068 and K100 at 1 nM and 100 nM concentration. Forty-eight hours after induction, ALP activity of the osteoblasts was determined as described by Akiyama et al (Exp Cell Res 235:362-369, 1997) with slight modifications. Briefly, cells were washed once with PBS and ALP activity was measured by adding ALP buffer (1 M diethanolamine, 0.5 mM MgCl2, 1 mg/ml PNPP, pH 9.0), incubating in 37° C., and absorbance (405 nm) was measured using a microplate spectrophotometer. Statistical significance was determined by paired two-tailed Student's t-tests.

Bone marrow cells (BMCs) = test: In vitro mineralization from mouse bone marrow; assay type: cell-based, balb/c mice; details: 1 nM and 100 nM, 21 days
Source text: Adult balb/c mice were used in this study. Bone marrow cells (BMCs) were harvested from the femurs and tibias of the animals, as described elsewhere (Maniatopoulos et al. Cell Tissue Res 1988:254:317-30.; Ishaug et al., J Biomed Mater Res 1997; 36:17-28.). Briefly, bones were aseptically excised from the hind limbs of the mice following ether euthanasia. The soft tissue was removed, and the proximal end of the femur and distal end of the tibia were clipped off using sterile scissors, a hole was created in the knee joint end of each bone with an needle, and the marrow was flushed from the shaft with control medium (CM) which consisted of α-MEM supplemented with 10% fetal calf serum, 100 U/ml penicillin, 100 U/ml streptomycin (Sigma, Chemical Co., St. Louis, Mo., USA). The cells were suspended in this medium, and the cell suspensions from all bones were combined in a centrifuge tube. The suspension was spun down at 800 rpm for 5 min. Cells were counted by using a haemocytometer. The supernatant was aspirated, and the pellet was re-suspended in fresh CM and then seeded into 12-well plates. 200000 cells/well were cultured in 12-well plates and in a humidified atmosphere, with 5% CO2, at 37° C. in the same medium supplemented with 10 mM-β-glycerophosphate, 50 μg/ml L-ascorbic acid and 10^−8M dexamethasone with different concentration of the test compound. This medium was replaced every other day (John et al. Trends. Biomater. Artif. Organs 2002:16(1):28-33.; Connolly. Clin Orthop 1995:313: 8-18.; Gebhart and Lane. Acta Orthop Belg 1991:57(2):130-43.; Gurpinar et al. J Biomater Appl 2003; 18(1):25-33; Lan and Wang, Blood Substitutes. Biotechnol 2003; 31(1):59-68.). Treatments K012, K058, K068 and K0100 at 1 nM and 100 nM concentration were given for 21 days and after completion of the treatment samples were rinsed with PBS followed by fixation (4% HCHO for […]). Samples were then rinsed with nanopure water and stained for 10 min with 40 mM AR-S, pH 4.2, at room temperature. Photomicrographs of the stained wells were taken. Subsequently, alizarin red-S stain was extracted using 10% (w/v) CPC in […] sodium phosphate, pH 7.0, for […] at room temperature, and the resulting solutions were read on a Microplate reader with a test wavelength of 540 nm against a reference wavelength of 620 nm.

3T3-L1 preadipocytes = test: Semi-quantitative RT-PCR of adipogenic genes; assay type: cell-based, murine; details: 10^−7 & 10^−9M, 8 d
Method: RT-PCR was performed for assessing the expression of PPAR-γ (peroxisome proliferator-activated receptor) and adiponectin. The house keeping gene GAPDH was used as the internal control in this study. 3T3-L1 preadipocytes were cultured under differentiation condition to form adipocytes in the presence of K068 and K100 at 10^−6, 10^−7 and 10^−9 M concentrations for 8 days. Following the culture, cellular RNA was extracted and RT-PCR performed using a kit (Fermentas) according to manufacturer's instructions.

Ishikawa cells = test: In vitro estrogenicity / anti-estrogenicity (ALP induction); assay type: cell-based, human; details: 10^−11 to 10^−6 M, 72 h
Method: The expression of alkaline phosphatase is induced in Ishikawa cells in response to estrogen or estrogen like substances (Littlefield et al, Endocrinology. 1990 December; 127(6):2757-62.). Ishikawa cells were plated in 96-well flat bottomed microtiter plates at a density of 5000 cells/well and cultured in phenol red free DMEM containing 10% charcoal treated FCS. After 24 h of plating, cells were serum-starved for 12 h. Thereafter, for testing estrogenicity of compounds, the cells were treated with different concentrations (10^−6 to 10^−11 M) of pure compounds K058 and K012. Same concentrations of Raloxifene were also used for comparison. Estrogen concentration of 10^−8 M was used as a positive control. Compound treatments were performed for 72 h at 37° C. in CO2 incubator. Experiments were repeated 4 times. For the anti-estrogenicity studies, the compounds K012 and K058 at 10^−6 to 10^−11 M were added with 10^−8 M estrogen. After 72 h of incubation, the media was removed and the plates were washed twice with PBS and dried by tapping, gently. Freeze fracture of cells was achieved by placing the plates at −70° C. for 15, min followed by bringing to room temperature. The plates were then placed on ice and 50 μl of ice cold diethanolamine solution (5 mM P-nitrophenyl phosphate (PNP) and 0.25 mM MgCl2 in 1 M diethanolamine) was added to each well. The plates were then placed at 37° C. for 30 minutes for color (yellow) development is a function of ALP activity. Absorbance was measured at 405 nm.

| Structure (SMILES) | anti-adipogenic activity in 3T3 L1 cell line (summary of in vitro effects) [1] | adipocyte differentiation (oil red-O) [1] | osteoblast mineralization (summary of in vitro effects) (calvarial osteoblasts [2]) | Von kossa staining (mineralized nodules) compared with controls (vehicle) (calvarial osteoblasts [2]) | osteoblast differentiation (summary of in vitro effects) (calvarial osteoblasts [3]) | mineralization of bone marrow osteoblasts (alizarin red staining) (Bone marrow cells (BMCs)) | mRNA levels of PPAR-γ (3T3-L1 preadipocytes) | mRNA levels of adiponectin (3T3-L1 preadipocytes) | ALP levels (estrogenicity) (Ishikawa cells) |
| --- | --- | --- | --- | --- | --- | --- | --- | --- | --- |
| O=C1CC(c2ccc(O)cc2)Oc2cc(O)c(C3O[C@H](CO)[C@@H](O)[C@H](O)[C@H]3O)c(O)c21 (some centres unmarked) [K068, 6-Glucopyranosyl-4′,5,7-trihydroxyflavanone] | have anti-adipogenic activity | significantly inhibited | promoted | increased | promoted | stimulated | decreased | decreased |  |
| O=C1c2c(cc(O)c([C@@H]3OC(CO)[C@@H](O)[C@H](O)C3O)c2O)O[C@@H](c2ccc(O)cc2)[C@@H]1O (stereo partly drawn) [K100, (2S,3S)-(+)-4′,5,7-trihydroxydihydroflavonol-6-C-β-D-glucopyranoside] | have anti-adipogenic activity | significantly inhibited | promoted | increased | promoted | stimulated | decreased | decreased |  |
| O=C(c1ccc(OCCN2CCCCC2)cc1)c1c(-c2ccc(O)cc2)sc2cc(O)ccc12 [raloxifene, reference compound] |  |  |  |  |  |  |  |  | no response |
